Results taken from the supplement of paper PMC10307832.

Columns and labels:
Assay in all cases: relative viability (nuclei count vs DMSO), 5 days (fraction); higher = more cells survive
CX-5461 + Navitoclax = compound: Cc1cnc(CNC(=O)c2c(=O)c3ccc(N4CCCN(C)CC4)nc3n3c2sc2ccccc23)cn1 [CX-5461] + CC1(C)CCC(c2ccc(Cl)cc2)=C(CN2CCN(c3ccc(C(=O)NS(=O)(=O)c4ccc(N[C@H](CCN5CCOCC5)CSc5ccccc5)c(S(=O)(=O)C(F)(F)F)c4)cc3)CC2)C1 [Navitoclax] (partner 0.5 µM)
Method in brief: (§1)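 Values are medians from duplicate plates. Each reflects relative viability, defined as the nuclei count of treated wells over that of vehicle wells. Lung cancer cell lines in 1536-well plates were pin-tool dosed one day after seeding with one drug alone or with a fixed anchor-drug dose plus five library-drug doses (not always all listed) in √10 steps, then fixed, stained and imaged at 4× after 5 days.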

IMD-0354 + Phenformin = compound: O=C(Nc1cc(C(F)(F)F)cc(C(F)(F)F)c1)c1cc(Cl)ccc1O [IMD-0354] + N=C(N)NC(=N)NCCc1ccccc1 [Phenformin] (partner 250 µM)
Method in brief: as §1

CX-5461 = compound: Cc1cnc(CNC(=O)c2c(=O)c3ccc(N4CCCN(C)CC4)nc3n3c2sc2ccccc23)cn1 [CX-5461]
Method in brief: (§2)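 A plate was accepted only when its control CV was below 25% and the cells had doubled at least once. Viability is defined from nuclear counts as treated wells divided by vehicle wells, with the median taken across plates. That median covers lung cancer cell lines grown in 1536-well plates, dosed by pinning at five √10-spaced library-drug concentrations, and counted in MetaXpress from 4× Hoechst images after 5 days.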

IMD-0354 = compound: O=C(Nc1cc(C(F)(F)F)cc(C(F)(F)F)c1)c1cc(Cl)ccc1O [IMD-0354]
Method in brief: as §2

Cell Line | relative viability (CX-5461 + Navitoclax; first compound 0.01 µM) | relative viability (CX-5461 + Navitoclax; first compound 0.03162 µM) | relative viability (CX-5461 + Navitoclax; first compound 0.1 µM) | relative viability (CX-5461 + Navitoclax; first compound 0.3162 µM) | relative viability (CX-5461 + Navitoclax; first compound 1 µM) | relative viability (IMD-0354 + Phenformin; first compound 0.04 µM) | relative viability (IMD-0354 + Phenformin; first compound 0.1265 µM) | relative viability (IMD-0354 + Phenformin; first compound 0.4 µM) | relative viability (IMD-0354 + Phenformin; first compound 1.265 µM) | relative viability (IMD-0354 + Phenformin; first compound 4 µM) | relative viability (CX-5461; 0.01 µM) | relative viability (CX-5461; 0.03162 µM) | relative viability (CX-5461; 0.1 µM) | relative viability (CX-5461; 0.3162 µM) | relative viability (CX-5461; 1 µM) | relative viability (IMD-0354; 0.04 µM) | relative viability (IMD-0354; 0.1265 µM) | relative viability (IMD-0354; 0.4 µM) | relative viability (IMD-0354; 1.265 µM) | relative viability (IMD-0354; 4 µM)
LXF-289 | 0.94 | 0.985 | 0.995 | 0.875 | 0.957 | 0.548 | 0.504 | 0.329 | 0.124 | 0.0658 | 0.988 | 1.01 | 1.06 | 0.87 | 0.745 | 1.02 | 1.05 | 0.86 | 0.337 | 0.207
NCI-H2009 | 1.18 | 1.19 | 1.08 | 1.18 | 0.765 | 0.502 | 0.324 | 0.228 | 0.137 | 0.15 | 1.02 | 1.04 | 0.879 | 1.02 | 0.75 | 1.02 | 0.929 | 0.738 | 0.19 | 0.131
NCI-H2405 | 0.957 | 0.92 | 0.997 | 0.431 | 0.743 | 0.445 | 0.398 | 0.286 | 0.245 | 0.166 | 1.03 | 0.995 | 1.01 | 0.897 | 0.864 | 1.08 | 1.09 | 0.7 | 0.278 | 0.332
NCI-H1755 | 0.979 | 0.992 | 1.01 | 0.997 | 0.883 | 0.603 | 0.547 | 0.411 | 0.273 | 0.252 | 1.09 | 1.03 | 1.01 | 1.01 | 0.901 | 0.989 | 1.02 | 0.76 | 0.454 | 0.26
HCC-78 | 0.984 | 0.839 | 0.724 | 0.543 | 0.769 | 0.667 | 0.697 | 0.398 | 0.439 | 0.292 | 1.01 | 0.879 | 0.941 | 0.907 | 0.902 | 0.988 | 0.989 | 0.579 | 0.586 | 0.487
LOU-NH91 | 0.7 | 0.694 | 0.735 | 0.472 | 0.575 | 0.498 | 0.393 | 0.208 | 0.143 | 0.166 | 1.07 | 1.01 | 0.997 | 0.574 | 0.845 | 1.1 | 1 | 0.353 | 0.252 | 0.273
NCI-H3122 | 0.966 | 1.04 | 1.03 | 1.01 | 0.97 | 0.401 | 0.339 | 0.136 | 0.064 | 0.0975 | 0.977 | 1.02 | 0.965 | 1.01 | 0.831 | 1.12 | 1.06 | 0.723 | 0.313 | 0.151
HCC-827 | 1.07 | 1.01 | 1.02 | 1.02 | 0.975 | 0.411 | 0.353 | 0.228 | 0.178 | 0.174 | 1.02 | 1.02 | 1.03 | 1.01 | 0.933 | 1.06 | 1.05 | 0.736 | 0.439 | 0.258
SW 1573 | 0.974 | 0.998 | 1.05 | 0.872 | 1.12 | 0.397 | 0.265 | 0.18 | 0.0898 | 0.103 | 0.94 | 0.978 | 0.689 | 0.656 | 0.33 | 1.15 | 0.916 | 0.548 | 0.22 | 0.13
NCI-H1975 | 1.29 | 1.1 | 1.09 | 1.25 | 0.871 | 0.402 | 0.362 | 0.201 | 0.139 | 0.124 | 1.02 | 0.974 | 0.905 | 0.961 | 0.714 | 0.949 | 0.986 | 0.625 | 0.211 | 0.212
NCI-H1651 |  | 0.882 |  | 0.694 | 0.0867 | 0.35 | 0.22 | 0.198 | 0.106 | 0.0771 | 0.956 | 0.871 | 0.57 | 0.959 | 0.371 | 1.04 | 0.983 | 0.577 | 0.402 | 0.139
NCI-H441 | 0.514 | 0.821 | 0.57 | 0.703 | 0.583 | 0.79 | 0.693 | 0.45 | 0.177 | 0.262 | 1.08 | 1.17 | 0.947 | 0.888 | 0.689 | 1.13 | 0.966 | 0.521 | 0.227 | 0.243
LCLC-97TM1 | 0.405 | 0.523 | 0.325 |  | 0.467 | 0.43 | 0.451 | 0.234 | 0.18 | 0.126 | 0.881 | 1.14 | 0.992 |  | 0.746 | 0.97 | 0.938 | 0.639 | 0.384 | 0.128
NCI-H727 | 0.493 | 0.365 | 0.464 | 0.354 | 0.31 | 0.483 | 0.407 | 0.426 | 0.307 | 0.402 | 1.07 | 1.03 | 1.03 | 0.875 | 0.78 | 0.838 | 0.908 | 0.732 | 0.494 | 0.509
NCI-H1355 | 0.882 | 1.03 | 0.986 | 1.01 | 1 | 0.437 | 0.415 | 0.432 | 0.24 | 0.236 | 1.03 | 1.06 | 0.96 | 0.521 | 0.671 | 1.12 | 0.946 | 0.716 | 0.368 | 0.221
HOP-62 | 0.908 | 1.16 | 1.21 |  | 1.02 | 0.842 | 0.482 | 0.363 | 0.12 | 0.165 | 1.02 | 1.05 | 1.08 | 0.893 | 0.899 | 1.03 | 1.08 | 0.639 | 0.38 | 0.13
NCI-H2085 | 1.21 | 1.16 | 1.02 | 1.16 | 1.11 | 0.641 | 0.69 | 0.515 | 0.322 | 0.232 | 1.07 | 1.01 | 0.992 | 1.02 | 0.869 | 1.06 | 0.975 | 0.775 | 0.449 | 0.415
